Results from patent US20240239788A1, “SMALL MOLECULE INHIBITORS OF KRAS G12D MUTANT” (Merck Sharp & Dohme LLC, priority 2021, published 2024).
Structures can show the parent of a compound that is named as a salt.

Biological target: KRAS protein containing G12D mutation (Homo sapiens (Human), UniProt P01116, G12D)
Test: SOS-catalyzed nucleotide exchange assay (GNE), TR-FRET
Format: biochemical
Conditions: biotinylated KRAS G12D, SOS and GTP, 60-minute incubation
Method: Compounds are added to this complex and then after a 60-minute incubation time the mixture is treated with SOS and unlabeled GTP. Small molecule inhibitors stabilize the Bodipy-GDP complex whereas the untreated protein rapidly exchanges Bodipy-GDP for unlabeled GTP resulting in reduced TR-FRET signal.
This solution is referred to as biotinylated KRAS G12D stock solution.

Sequence of KRAS protein containing G12D mutation (P01116 other isoform, or with tags, fused parts or gaps G12D (already in the parent)): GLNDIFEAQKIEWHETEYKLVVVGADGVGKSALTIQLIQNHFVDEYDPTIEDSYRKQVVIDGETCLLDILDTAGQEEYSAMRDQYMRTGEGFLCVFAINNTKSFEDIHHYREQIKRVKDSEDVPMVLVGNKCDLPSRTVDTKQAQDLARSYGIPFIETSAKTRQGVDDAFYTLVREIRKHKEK

| Structure (SMILES) | IC50 [nM] |
| --- | --- |
| CN(C)C[C@@]1(COc2nc(N3C[C@H]4CC[C@@H](C3)N4)c3cc(F)c(-c4c(C(F)(F)F)c(Cl)cc5cnn(C)c45)c(F)c3n2)CC1(F)F (single isomer, unassigned) [201a] | 11100 |
| C#Cc1c(F)ccc2ccc(F)c(-c3c(F)cc4c(N5CC6CC[C@@](C)(C5)N6)nc(OC[C@@]56CCCN5C[C@H](F)C6)nc4c3F)c12 (single isomer, unassigned) [246a] | 41.3 |
| C#Cc1c(F)ccc2ccc(F)c(-c3c(F)cc4c(N5CC6CC[C@@](C)(C5)N6)nc(OC[C@@]56CCCN5C[C@H](F)C6)nc4c3F)c12 (single isomer, unassigned) [246b] | 165 |
| Cc1cc(N)nc(-c2c(Cl)cc3c(N4CC5CC(O)C(C4)N5)nc(OC[C@@]45CCCN4C[C@H](F)C5)nc3c2F)c1C(F)(F)F (single isomer, unassigned) [249a] | 351 |
| Cc1nc2[nH]nc(C)c2c(-c2c(F)cc3c(N4C[C@H]5CC[C@@H](C4)N5)nc(OC[C@@]45CCCN4C[C@H](F)C5)nc3c2F)c1C(F)(F)F (single isomer, unassigned) [250a] | 400 |
| C#Cc1c(F)ccc2cc(N)nc(-c3c(F)cc4c(N5C[C@H]6CC[C@@H](C5)N6)nc(OC[C@@]56CCCN5C[C@H](F)C6)nc4c3F)c12 (single isomer, unassigned) [252b] | 204 |
| CNc1cc(C)c(C(F)(F)F)c(-c2c(F)cc3c(N4CC5CCC(C4)N5)nc(OCC4(CN5CCOCC5)CC4)nc3c2F)n1 (single isomer, unassigned) [Ex. 137a] | 1610 |
| CNc1cc(C)c(C(F)(F)F)c(-c2c(F)cc3c(N4CC5CCC(C4)N5)nc(OCC4(CN5CCOCC5)CC4)nc3c2F)n1 (single isomer, unassigned) [Ex. 137b] | 4820 |
| Cc1nc(N)cc(-c2c(F)cc3c(N4C[C@H]5CC[C@@](C)(C4)N5)nc(OCC4(CN5CCOCC5)CC4)nc3c2F)c1C(F)(F)F (single isomer, unassigned) [Ex. 139a] | 1670 |
| Cc1nc(N)cc(-c2c(F)cc3c(N4C[C@H]5CC[C@@](C)(C4)N5)nc(OCC4(CN5CCOCC5)CC4)nc3c2F)c1C(F)(F)F (single isomer, unassigned) [Ex. 139b] | 287 |
| Cc1cc(N)c(F)c(-c2c(F)cc3c(N4CC5CCC(C4)N5)nc(OC[C@@]45CCCN4C[C@H](F)C5)nc3c2F)c1C(F)(F)F (single isomer, unassigned) [Ex. 146b] | 25.2 |
| Nc1cc(Cl)c(C(F)(F)F)c(-c2c(Cl)cc3c(N4CC5CCC(C4)N5)nc(OC[C@@]45CCCN4C[C@H](F)C5)nc3c2F)n1 (single isomer, unassigned) [Ex. 154b] | 381 |
| Nc1cc(-c2c(Cl)cc3c(N4CC5CCC(C4)N5)nc(OC[C@@]45CCCN4C[C@H](F)C5)nc3c2F)c(C(F)(F)F)c(Cl)n1 (single isomer, unassigned) [Ex. 155a] | 330 |
| Cc1nc(N)c(C#N)c(-c2c(F)cc3c(N4CC5CCC(C4)N5)nc(OC[C@@]45CCCN4C[C@H](F)C5)nc3c2F)c1C(F)(F)F (single isomer, unassigned) [Ex. 156a] | 14 |
| Cc1nc(N)c(C#N)c(-c2c(F)cc3c(N4CC5CCC(C4)N5)nc(OC[C@@]45CCCN4C[C@H](F)C5)nc3c2F)c1C(F)(F)F (single isomer, unassigned) [Ex. 156b] | 554 |
| Cc1cc(N)nc(-c2c(Cl)cc3c(N4CC5CCC(C4)N5)nc(OC[C@@]45CCCN4C[C@H](F)C5)nc3c2F)c1CC(F)(F)F (single isomer, unassigned) [Ex. 157a] | 113 |
| Cc1cc(N)nc(-c2c(Cl)cc3c(N4CC5CCC(C4)N5)nc(OC[C@@]45CCCN4C[C@H](F)C5)nc3c2F)c1CC(F)(F)F (single isomer, unassigned) [Ex. 157b] | 2940 |
| C#Cc1cccc2cc(O)cc(-c3c(F)cc4c(N5C[C@H]6CC[C@@](C)(C5)N6)nc(OC)nc4c3F)c12 (single isomer, unassigned) [Ex. 171b, TFA] | 3470 |
| C[C@]12CCC(CN(c3nc(OCC45CCCN4CC(C(F)F)C5)nc4c(F)c(-c5cc(O)cc6cccc(Cl)c56)c(F)cc34)C1)N2 (single isomer, unassigned) [Ex. 173-2b] | 2230 |
| C[C@@]12CC[C@H](CN(c3nc(OC[C@@]45CCCN4C[C@H](F)C5)nc4c(F)c(-c5cc(O)c(Cl)c6cccc(Cl)c56)c(F)cc34)C1)N2 (single isomer, unassigned) [Ex. 174a] | 3130 |

| Structure (SMILES) | IC50 [nM] |
| --- | --- |
| C[C@@]12CC[C@H](CN(c3nc(OC[C@@]45CCCN4C[C@H](F)C5)nc4c(F)c(-c5cc(O)c(Cl)c6cccc(Cl)c56)c(F)cc34)C1)N2 (single isomer, unassigned) [Ex. 174b] | 1000 |
| C[C@]12CCC(CN(c3nc(OC[C@@H]4CC[C@H]5CC(F)(F)CCN45)nc4c(F)c(-c5cc(O)cc6cccc(Cl)c56)c(F)cc34)C1)N2 (single isomer, unassigned) [Ex. 175b] | 11100 |
| Cc1cccc2cc(O)cc(-c3c(F)cc4c(N5CC6CC[C@@](C)(C5)N6)nc(OC[C@@]56CCCN5C[C@H](F)C6)nc4c3F)c12 (single isomer, unassigned) [Ex. 179a] | 5.07 |
| Cc1cccc2cc(O)cc(-c3c(F)cc4c(N5CC6CC[C@@](C)(C5)N6)nc(OC[C@@]56CCCN5C[C@H](F)C6)nc4c3F)c12 (single isomer, unassigned) [Ex. 179b] | 727 |
| C[C@]12CCC(CN(c3nc(OC[C@@]45CCCN4C[C@H](F)C5)nc4c(F)c(-c5cc(O)cc6cccc(C(F)F)c56)c(F)cc34)C1)N2 (single isomer, unassigned) [Ex. 181a] | 3.97 |
| C[C@]12CCC(CN(c3nc(OC[C@@]45CCCN4C[C@H](F)C5)nc4c(F)c(-c5cc(O)cc6cccc(C(F)F)c56)c(F)cc34)C1)N2 (single isomer, unassigned) [Ex. 181b] | 141 |
| C[C@]12CCC(CN(c3nc(OC[C@@]45CCCN4C[C@H](F)C5)nc4c(F)c(-c5cc(Cl)cc6cccc(Cl)c56)c(F)cc34)C1)N2 (single isomer, unassigned) [Ex. 184] | 4720 |
| Nc1cc2cccc(Cl)c2c(-c2c(F)cc3c(N4CC5CCC(C4)N5)nc(OC[C@@]45CCCN4C[C@H](F)C5)nc3c2F)n1 (single isomer, unassigned) [Ex. 189b] | 11100 |
| Cc1cc(N)nc(-c2c(F)cc3c(N4CC5CC[C@@](C)(C4)N5)nc(OC[C@@]45CCCN4C[C@H](F)C5)nc3c2F)c1C(F)(F)F (single isomer, unassigned) [Ex. 200b] | 1130 |
| CC(O)(COc1nc(N2CC3CC[C@@](C)(C2)N3)c2cc(F)c(-c3cc(O)cc4cccc(Cl)c34)c(F)c2n1)CN1CC[C@@H](F)C1 (single isomer, unassigned) [Ex. 210] | 2150 |
| C#Cc1cccc2cccc(-c3c(F)cc4c(N5CC6CC[C@@](C)(C5)N6)nc(OC[C@@]56CCCN5C[C@H](F)C6)nc4c3F)c12 (single isomer, unassigned) [Ex. 211a] | 2080 |
| C[C@]12CCC(CN(c3nc(OC[C@]4(CNCC(F)F)CC4(F)F)nc4c(F)c(-c5cc(O)cc6cccc(Cl)c56)c(F)cc34)C1)N2 (single isomer, unassigned) [Ex. 221] | 1110 |
| Cc1cc2[nH]nc(C)c2c(-c2c(F)cc3c(N4CC5CCC(C4)N5)nc(OC[C@@]45CCCN4C[C@H](F)C5)nc3c2F)c1OC(F)F (single isomer, unassigned) [Ex. 233a] | 1070 |
| Cc1cc2[nH]nc(C)c2c(-c2c(F)cc3c(N4CC5CCC(C4)N5)nc(OC[C@@]45CCCN4C[C@H](F)C5)nc3c2F)c1OC(F)F (single isomer, unassigned) [Ex. 233b] | 6.11 |
| C[C@]12CC[C@H](CN(c3nc(OCC45CCCN4CCC(F)(F)C5)nc4c(F)c(-c5cc(O)cc6cccc(Cl)c56)c(F)cc34)C1)N2 (single isomer, unassigned) [Example 116a] | 2890 |
| Cc1cc2[nH]ncc2c(-c2c(F)cc3c(N4CC5CCC(C)(C4)N5)nc(OCC4(CN5CCOCC5)CC4)nc3c2F)c1OC(F)(F)F (stereo in doubt) [Ex. 125, 4-((1-(((6,8-difluoro-7-(6-methyl-5-(trifluoromethoxy)-1H-indazol-4-yl)-4-((1S,5R)-1-methyl-3,8-diazabicyclo[3.2.1]octan-3-yl)quinazolin-2-yl)oxy)methyl)cyclopropyl)methyl) morpholine] | 148 |
| Cc1cc2cnn(C)c2c(-c2c(F)cc3c(N4C[C@H]5CC[C@@H](C4)N5)nc(OC[C@@]45CCCN4C[C@H](F)C5)nc3c2F)c1C(F)(F)F [251a, 4-((1R,5S)-3,8-diazabicyclo[3.2.1]octan-3-yl)-7-(1,5-dimethyl-6-(trifluoromethyl)-1H-indazol-7-yl)-6,8-difluoro-2-(((2R, 7aS)-2-fluorotetrahydro-1H-pyrrolizin-7a(5H)-yl)methoxy)quinazoline] | 5.15 |
| Cc1cc2cn(C)nc2c(-c2c(F)cc3c(N4C[C@H]5CC[C@@H](C4)N5)nc(OC[C@@]45CCCN4C[C@H](F)C5)nc3c2F)c1C(F)(F)F [251b, 4-((1R,5)-3,8-diazabicyclo[3.2.1]octan-3-yl)-7-(2,5-dimethyl-6-(trifluoromethyl)-2H-indazol-7-yl)-68-difluoro-2-(((2R,7aS)-2-fluorotetrahydro-1H-pyrrolizin-7a(5H)-yl)methoxy)quinazoline] | 935 |
| C[C@]12CC[C@H](CN(c3nc(OC[C@@]45CCCN4C[C@H](F)C5)nc4c(F)c(-c5cccn6cccc56)c(F)cc34)C1)N2 [Ex. 130, 6,8-difluoro-2-(((2R,7aS)-2-fluorotetrahydro-1H-pyrrolizin-7a(5H)-yl)methoxy)-7-(indolizin-8-yl)-4-((1S,5R)-1-methyl-3,8-diazabicyclo[3.2.1]octan-3-yl)quinazoline, 2TFA] | 4190 |
| Cc1nc(N)cc(-c2c(Cl)cc3c(N4C[C@H]5CC[C@@](C)(C4)N5)nc(OCC4(CN5CCOCC5)CC4)nc3c2F)c1C(F)(F)F [Ex. 138, 4-(6-chloro-8-fluoro-4-((1S,5R)-1-methyl-3,8-diazabicyclo[3.2.1]octan-3-yl)-2-((1-(morpholinomethyl)cyclopropyl)methoxy)quinazolin-7-yl)-6-methyl-5-(trifluorometh-yl)pyridin-2-amine] | 361 |
